Source: patent publication US20240270762A1, “PENICILLIN-BINDING PROTEIN INHIBITORS” (priority 2021, published 2024)
In brackets after ≈: the same amount, converted by molar mass. Like-named read-outs stand apart in the source and are kept apart here.

Experiments:
[1] = test system: P. aeruginosa (ΔmexAB-oprM); assay: Broth microdilution MIC in iron-depleted CAMHB (IDM); type: cell-based; conditions: Pseudomonas aeruginosa; iron-depleted CAMHB (IDM); […]; read-out: Minimum inhibitory concentration, P. aeruginosa ΔmexAB-oprM
[2] = test system: N. gonorrhoeae ATCC 49226; assay: Liquid broth MIC in Fastidious broth; conditions: Neisseria gonorrhoeae
N. gonorrhoeae CDC-0197 = assay: Liquid broth MIC in Fastidious broth; conditions: Neisseria gonorrhoeae
A. baumannii ATCC 19606 = assay: microbe, parasite or virus in culture; type: cell-based; conditions: Acinetobacter baumannii, ATCC19606, read-out: MIC, A. baumannii ATCC 19606
A. baumannii CDC-0045 = assay: microbe, parasite or virus in culture; type: cell-based; conditions: Acinetobacter baumannii, CDC0045, read-out: MIC, A. baumannii CDC-0045
[3] = target: T1, PBP3 from Pseudomonas aeruginosa (PAO1) (Pseudomonas aeruginosa, UniProt G3XD46); assay: Bocillin-FL fluorescence polarization competition binding, P. aeruginosa PBP3; conditions: Binding affinity to P. aeruginosa PBP3; fluorescence polarization competition binding assay using Bocillin-FL; read-out: P. aeruginosa PBP3 Potency
T1 construct: made in house
In short: (§1)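 Purified PBPs pre-incubated with inhibitor (E. coli PBP3 1.5 μM, 30 min; P. aeruginosa PBP3 0.75 μM, A. baumannii PBP1a 1 μM and PBP3 0.2 μM, 15 min), then Bocillin-FL 0.1 μM (0.05 μM for PBP1a) added; FP read up to 60 min. EC50 = concentration halving bound Bocillin-FL.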

[4] = test system: B. humptydooensis ATCC BAA-2767; assay: microbe, parasite or virus in culture; type: cell-based; conditions: Burkholderia humptydooensis, ATCCBAA2767, read-out: Minimum inhibitory concentration (MIC), B. humptydooensis ATCC BAA-2767
N. gonorrhoeae WHO L = assay: Liquid broth MIC in Fastidious broth; conditions: Neisseria gonorrhoeae
N. gonorrhoeae MS11 = assay: Liquid broth MIC in Fastidious broth; conditions: Neisseria gonorrhoeae
[5] = test system: B. thailandensis ATCC 700388; assay: microbe, parasite or virus in culture; type: cell-based; conditions: Burkholderia thailandensis, ATCC700388, read-out: Minimum inhibitory concentration (MIC), B. thailandensis ATCC 700388
N. gonorrhoeae WHO Z = assay: Liquid broth MIC in Fastidious broth; conditions: Neisseria gonorrhoeae
N. gonorrhoeae FA1090 = assay: Liquid broth MIC in Fastidious broth; conditions: Neisseria gonorrhoeae
[6] = target: T2, PBP3 from Escherichia coli (K-12) (Escherichia coli, UniProt P0AD68); assay: Bocillin-FL fluorescence polarization competition binding, E. coli PBP3
T2 construct: made in house
In short: as §1

N. gonorrhoeae WHO G = assay: Liquid broth MIC in Fastidious broth; conditions: Neisseria gonorrhoeae
P. aeruginosa ATCC 27853 = assay: microbe, parasite or virus in culture; type: cell-based; conditions: Pseudomonas aeruginosa, ATCC27853, read-out: Minimum inhibitory concentration, P. aeruginosa ATCC 27853
[7] = ATCC49226, read-out: Minimum Inhibitory Concentration (MIC), N. gonorrhoeae ATCC 49226
[8] = CDC0197, read-out: Minimum Inhibitory Concentration (MIC), N. gonorrhoeae CDC-0197
[9] = read-out: Minimum Inhibitory Concentration (MIC), N. gonorrhoeae WHO L
[10] = MS11, read-out: Minimum Inhibitory Concentration (MIC), N. gonorrhoeae MS11
[11] = read-out: Minimum Inhibitory Concentration (MIC), N. gonorrhoeae WHO Z
[12] = FA1090, read-out: Minimum Inhibitory Concentration (MIC), N. gonorrhoeae FA 1090
[13] = read-out: Minimum Inhibitory Concentration (MIC), N. gonorrhoeae WHO G
[14] = ATCC49226, read-out: Minimum Inhibitory Concentration, ATCC 49226
[15] = CDC0197, read-out: Minimum Inhibitory Concentration, CDC-0197
[16] = read-out: Minimum Inhibitory Concentration, WHO L
[17] = MS11, read-out: Minimum Inhibitory Concentration, MS11
[18] = read-out: Minimum Inhibitory Concentration, WHO Z
[19] = FA1090, read-out: Minimum Inhibitory Concentration, FA 1090
[20] = read-out: Minimum Inhibitory Concentration, WHO G

T2 sequence (P0AD68 1-577): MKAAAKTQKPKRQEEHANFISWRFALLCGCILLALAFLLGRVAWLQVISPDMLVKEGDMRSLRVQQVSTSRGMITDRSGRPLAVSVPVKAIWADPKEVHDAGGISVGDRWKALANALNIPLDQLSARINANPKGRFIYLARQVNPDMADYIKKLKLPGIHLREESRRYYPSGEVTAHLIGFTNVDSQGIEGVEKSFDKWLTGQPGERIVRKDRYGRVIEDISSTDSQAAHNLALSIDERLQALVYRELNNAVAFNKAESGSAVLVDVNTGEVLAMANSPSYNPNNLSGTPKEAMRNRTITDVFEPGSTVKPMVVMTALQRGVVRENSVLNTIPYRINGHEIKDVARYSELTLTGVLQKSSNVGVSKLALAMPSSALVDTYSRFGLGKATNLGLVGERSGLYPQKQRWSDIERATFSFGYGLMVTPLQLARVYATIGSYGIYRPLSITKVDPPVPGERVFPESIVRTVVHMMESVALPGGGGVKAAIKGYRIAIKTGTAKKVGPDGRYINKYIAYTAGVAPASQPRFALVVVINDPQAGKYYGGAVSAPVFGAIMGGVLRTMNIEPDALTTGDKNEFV
T1 sequence (G3XD46 whole entry): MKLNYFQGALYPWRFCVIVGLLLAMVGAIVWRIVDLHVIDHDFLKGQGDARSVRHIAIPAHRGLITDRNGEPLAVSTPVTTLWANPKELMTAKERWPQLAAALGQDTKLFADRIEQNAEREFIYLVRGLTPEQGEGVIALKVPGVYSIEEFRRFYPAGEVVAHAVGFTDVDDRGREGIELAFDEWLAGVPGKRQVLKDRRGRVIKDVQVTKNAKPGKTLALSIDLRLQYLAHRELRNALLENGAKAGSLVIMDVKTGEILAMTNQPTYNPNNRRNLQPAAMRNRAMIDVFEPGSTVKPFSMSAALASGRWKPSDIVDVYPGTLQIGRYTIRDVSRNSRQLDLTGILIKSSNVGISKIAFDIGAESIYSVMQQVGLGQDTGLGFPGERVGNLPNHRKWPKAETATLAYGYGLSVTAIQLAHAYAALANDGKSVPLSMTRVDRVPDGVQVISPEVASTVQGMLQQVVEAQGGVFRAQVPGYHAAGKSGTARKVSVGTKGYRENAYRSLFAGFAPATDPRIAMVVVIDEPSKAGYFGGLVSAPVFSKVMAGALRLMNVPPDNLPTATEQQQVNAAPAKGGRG

Row | SMILES | MIC [1] | MIC [2, 7] | MIC (N. gonorrhoeae CDC-0197; [8]) | MIC (A. baumannii ATCC 19606) | MIC (A. baumannii CDC-0045) | IC50 [3] | MIC [4] | MIC (N. gonorrhoeae WHO L; [9]) | MIC (N. gonorrhoeae MS11; [10]) | MIC [5] | MIC (N. gonorrhoeae WHO Z; [11]) | MIC (N. gonorrhoeae FA1090; [12]) | EC50 [6] | MIC (N. gonorrhoeae WHO G; [13]) | MIC (P. aeruginosa ATCC 27853) | also measured
1 | O=C(CN1CCN(C(=O)N[C@@H](C(=O)N[C@H]2Cc3ccc(F)c(C(=O)O)c3OB2O)c2cc(F)c(O)c(O)c2Cl)C(=O)C1=O)NCc1nccs1 [Example 241, (R)-3-((R)-2-(2-chloro-5-fluoro-3,4-dihydroxyphenyl)-2-(2,3-dioxo-4-(2-oxo-2-((thiazol-2-ylmethyl)amino)ethyl)piperazine-1-carboxamido)acetamido)-7-fluoro-2-hydroxy-3,4-dihydro-2H-benzo[e][1,2]oxaborinine-8-carboxylic acid] | < 1 µg/mL | 4 to 8 µg/mL (≈ 5.43 to 10.9 µM) | 16 to 32 µg/mL (≈ 21.7 to 43.4 µM) | < 1 µg/mL | 2 to 4 µg/mL (≈ 2.71 to 5.43 µM) | < 10 µM | 2 to 4 µg/mL (≈ 2.71 to 5.43 µM) | > 64 µg/mL | 16 to 32 µg/mL (≈ 21.7 to 43.4 µM) | 2 to 4 µg/mL (≈ 2.71 to 5.43 µM) | 16 to 32 µg/mL (≈ 21.7 to 43.4 µM) | 1 to 2 µg/mL (≈ 1.36 to 2.71 µM) | < 10 µM | 4 to 8 µg/mL (≈ 5.43 to 10.9 µM) | < 1 µg/mL | –
2 | O=C(NCCN1CCN(C(=O)NC(C(=O)N[C@H]2Cc3ccc(F)c(C(=O)O)c3OB2O)c2cc(F)c(O)c(O)c2Cl)C1=O)c1ccccc1 (stereo partly drawn) [Example 242, (3R)-3-(2-(3-(2-benzamidoethyl)-2-oxoimidazolidine-1-carboxamido)-2-(2-chloro-5-fluoro-3,4-dihydroxyphenyl)acetamido)-7-fluoro-2-hydroxy-3,4-dihydro-2H-benzo[e][1,2]oxaborinine-8-carboxylic acid] | < 1 µg/mL | 16 to 32 µg/mL (≈ 22.8 to 45.6 µM) | > 64 µg/mL | < 1 µg/mL | < 1 µg/mL | < 10 µM | 8 to 16 µg/mL (≈ 11.4 to 22.8 µM) | > 64 µg/mL | 16 to 32 µg/mL (≈ 22.8 to 45.6 µM) | 2 to 4 µg/mL (≈ 2.85 to 5.7 µM) | 16 to 32 µg/mL (≈ 22.8 to 45.6 µM) | 1 to 2 µg/mL (≈ 1.42 to 2.85 µM) | < 10 µM | 16 to 32 µg/mL (≈ 22.8 to 45.6 µM) | 2 to 4 µg/mL (≈ 2.85 to 5.7 µM) | –
3 | O=C(NCCN1CCN(C(=O)NC(C(=O)N[C@H]2Cc3ccc(F)c(C(=O)O)c3OB2O)c2cc(F)c(O)c(O)c2Cl)C1=O)c1ccc(O)cc1 (stereo partly drawn) [Example 243, (3R)-3-(2-(2-chloro-5-fluoro-3,4-dihydroxyphenyl)-2-(3-(2-(4-hydroxybenzamido)ethyl)-2-oxoimidazolidine-1-carboxamido)acetamido)-7-fluoro-2-hydroxy-3,4-dihydro-2H-benzo[e][1,2]oxaborinine-8-carboxylic acid] | < 1 µg/mL | 16 to 32 µg/mL (≈ 22.3 to 44.6 µM) | 16 to 32 µg/mL (≈ 22.3 to 44.6 µM) | < 1 µg/mL | < 1 µg/mL | < 10 µM | 2 to 4 µg/mL (≈ 2.79 to 5.57 µM) | > 64 µg/mL | 16 to 32 µg/mL (≈ 22.3 to 44.6 µM) | 2 to 4 µg/mL (≈ 2.79 to 5.57 µM) | 16 to 32 µg/mL (≈ 22.3 to 44.6 µM) | 4 to 8 µg/mL (≈ 5.57 to 11.1 µM) | 10 to 50 µM | 16 to 32 µg/mL (≈ 22.3 to 44.6 µM) | < 1 µg/mL | –
4 | O=C(NCCN1CCN(C(=O)NC(C(=O)N[C@H]2Cc3ccc(F)c(C(=O)O)c3OB2O)c2cc(F)c(O)c(O)c2Cl)C1=O)c1cccc(O)c1 (stereo partly drawn) [Example 244, (3R)-3-(2-(2-chloro-5-fluoro-3,4-dihydroxyphenyl)-2-(3-(2-(3-hydroxybenzamido)ethyl)-2-oxoimidazolidine-1-carboxamido)acetamido)-7-fluoro-2-hydroxy-3,4-dihydro-2H-benzo[e][1,2]oxaborinine-8-carboxylic acid] | < 1 µg/mL | > 64 µg/mL | > 64 µg/mL | < 1 µg/mL | 2 to 4 µg/mL (≈ 2.79 to 5.57 µM) | < 10 µM | 2 to 4 µg/mL (≈ 2.79 to 5.57 µM) | > 64 µg/mL | > 64 µg/mL | > 128 µg/mL | > 64 µg/mL | 4 to 8 µg/mL (≈ 5.57 to 11.1 µM) | 10 to 50 µM | 16 to 32 µg/mL (≈ 22.3 to 44.6 µM) | 2 to 4 µg/mL (≈ 2.79 to 5.57 µM) | –
5 | O=C(NCCN1CCN(C(=O)NC(C(=O)N[C@H]2Cc3ccc(F)c(C(=O)O)c3OB2O)c2cc(F)c(O)c(O)c2Cl)C1=O)c1ccncc1 (stereo partly drawn) [Example 245, (3R)-3-(2-(2-chloro-5-fluoro-3,4-dihydroxyphenyl)-2-(3-(2-(isonicotinamido)ethyl)-2-oxoimidazolidine-1-carboxamido)acetamido)-7-fluoro-2-hydroxy-3,4-dihydro-2H-benzo[e][1,2]oxaborinine-8-carboxylic acid] | < 1 µg/mL | 16 to 32 µg/mL (≈ 22.8 to 45.5 µM) | > 64 µg/mL | < 1 µg/mL | < 1 µg/mL | < 10 µM | < 1 µg/mL | > 64 µg/mL | 16 to 32 µg/mL (≈ 22.8 to 45.5 µM) | 2 to 4 µg/mL (≈ 2.85 to 5.69 µM) | > 64 µg/mL | 4 to 8 µg/mL (≈ 5.69 to 11.4 µM) | 10 to 50 µM | 16 to 32 µg/mL (≈ 22.8 to 45.5 µM) | 2 to 4 µg/mL (≈ 2.85 to 5.69 µM) | –
6 | O=C(NCCN1CCN(C(=O)NC(C(=O)N[C@H]2Cc3ccc(F)c(C(=O)O)c3OB2O)c2cc(F)c(O)c(O)c2Cl)C1=O)c1cccnc1 (stereo partly drawn) [Example 246, (3R)-3-(2-(2-chloro-5-fluoro-3,4-dihydroxyphenyl)-2-(3-(2-(nicotinamido)ethyl)-2-oxoimidazolidine-1-carboxamido)acetamido)-7-fluoro-2-hydroxy-3,4-dihydro-2H-benzo[e][1,2]oxaborinine-8-carboxylic acid] | < 1 µg/mL | – | – | < 1 µg/mL | < 1 µg/mL | < 10 µM | 2 to 4 µg/mL (≈ 2.85 to 5.69 µM) | – | – | 2 to 4 µg/mL (≈ 2.85 to 5.69 µM) | – | – | 10 to 50 µM | – | 2 to 4 µg/mL (≈ 2.85 to 5.69 µM) | MIC [2, 14]: 16 to 32 µg/mL (≈ 22.8 to 45.5 µM); MIC (N. gonorrhoeae CDC-0197; [15]): > 64 µg/mL; MIC (N. gonorrhoeae WHO L; [16]): > 64 µg/mL; MIC (N. gonorrhoeae MS11; [17]): 16 to 32 µg/mL (≈ 22.8 to 45.5 µM); MIC (N. gonorrhoeae WHO Z; [18]): 16 to 32 µg/mL (≈ 22.8 to 45.5 µM); MIC (N. gonorrhoeae FA1090; [19]): 4 to 8 µg/mL (≈ 5.69 to 11.4 µM); MIC (N. gonorrhoeae WHO G; [20]): 16 to 32 µg/mL (≈ 22.8 to 45.5 µM)
7 | O=C(NCCN1CCN(C(=O)NC(C(=O)N[C@H]2Cc3ccc(F)c(C(=O)O)c3OB2O)c2cc(F)c(O)c(O)c2Cl)C1=O)c1nccs1 (stereo partly drawn) [Example 247, (3R)-3-(2-(2-chloro-5-fluoro-3,4-dihydroxyphenyl)-2-(2-oxo-3-(2-(thiazole-2-carboxamido)ethyl)imidazolidine-1-carboxamido)acetamido)-7-fluoro-2-hydroxy-3,4-dihydro-2H-benzo[e][1,2]oxaborinine-8-carboxylic acid] | < 1 µg/mL | – | – | < 1 µg/mL | < 1 µg/mL | < 10 µM | < 1 µg/mL | – | – | < 1 µg/mL | – | – | 10 to 50 µM | – | 2 to 4 µg/mL (≈ 2.82 to 5.64 µM) | MIC [2, 14]: 16 to 32 µg/mL (≈ 22.6 to 45.1 µM); MIC (N. gonorrhoeae CDC-0197; [15]): > 64 µg/mL; MIC (N. gonorrhoeae WHO L; [16]): > 64 µg/mL; MIC (N. gonorrhoeae MS11; [17]): 16 to 32 µg/mL (≈ 22.6 to 45.1 µM); MIC (N. gonorrhoeae WHO Z; [18]): 16 to 32 µg/mL (≈ 22.6 to 45.1 µM); MIC (N. gonorrhoeae FA1090; [19]): 4 to 8 µg/mL (≈ 5.64 to 11.3 µM); MIC (N. gonorrhoeae WHO G; [20]): 16 to 32 µg/mL (≈ 22.6 to 45.1 µM)
